Square brackets hold non-standard residues; d marks the D form. Peptide text beside a SMILES is read from it. Nle = CCCC[C@H](N)C(=O)O
Key:
Hsp70 [1] = test: Cellular Hsp70 levels in CHO cells; type: cell-based, Chinese hamster
Hsp70 [2] = test: Hsp70 levels by denaturing immunoprecipitation of [3H]-leucine radiolabeled HepG2 cells; type: cell-based, human; conditions: for Hsp70 levels after removal of ALLN: 4-hour preincubation
Procedure: The HepG2 cell culture conditions were maintained as previously described (Dixon, et al., 1991). The cells were seeded into collagen-pre-coated dishes or six-well tissue culture plates and grown in complete medium containing minimum essential medium (MEM) with 0.1 mM nonessential amino acids, 1.0 mM sodium pyruvate, penicillin/streptomycin, and 10% fetal bovine serum. Cells were fed fresh complete medium every 3 days and maintained in a 5% CO2 incubator. All experiments were performed by using exponentially growing cells at 90-95% confluency. For heat shock treatment, the dishes were sealed with Parafilm and immersed in a water bath at 42° C. for indicated durations of time. Cells were incubated with ALLN alone at indicated concentrations or combined with other chemicals at 37° C. Cells were also incubated with different protease inhibitors alone at indicated concentrations or combined with other chemicals at 37° C.
HepG2 cells were preincubated for 4 hours in serum-free MEM and then radiolabeled with ^3 H-Leucine (150 μCi/ml) in a serum-free, leucine-free medium. Preincubation and labeling media each contained either 1.5% bovine serum albumin (BSA) alone, or BSA plus ALLN (40 μg/ml except as otherwise indicated), or BSA plus other protease inhibitors at concentrations indicated in the figure legends. At the indicated times, cells were removed from the 37° C. incubator and placed on ice, washed with cold phosphate-buffer saline (PBS) twice and lysed with lysis buffer containing 1% Triton X-100 (TX100), 1% deoxycholic acid (DOC) and 0.1% SDS in PBS containing proteinase inhibitors: 2 mM phenylmethylsulfonyl fluoride (PMSF); 2 μg/ml ALLN; 2 μg/ml leupeptin; and 2 μg/ml aprotinin. After a 30 min. incubation with lysis buffer at 4° C., the lysates were centrifuged at 14,000 g in a microcentrifuge for 5 min., and the supernatants were adjusted to 1% SDS concentration and boiled for 5 min. to denature the proteins. 1% TX100 was then added to dilute the lysates to a final concentration of 0.1% SDS. Cell lysates containing equal amounts of trichloroacetic acid (TCA)-insoluble radioactivity were used for immunoprecipitations by incubating with individual monoclonal antibody (1 μg/ml) for 2.5 hours at 4° C. Protein-A Sepharose 4B was added afterwards and the lysates incubated for another 1.5 hours at 4° C. to collect the immunocomplexes. After washing four times with 1×NET buffer (containing 0.5% TX100, 0.1% SDS), the immunocomplexes were mixed with sample buffer and boiled for 5 min. Following centrifugation, the supernatants were aliquoted for scintillation counting and for 3-15% gradient polyacrymide gel electrophoresis (SDS-PAGE) . The gels were later subjected to fluorography. All values are presented as the mean ± S.D. from three individual experiments except as otherwise indicated.
Denaturing immunoprecipitation was chosen because Hsp70 is a major cytosolic chaperone protein and it is co-immunoprecipitated with a number of other proteins under non-denaturingconditions (Beckmann, et al., 1990; Zhou, et al., 1995).

cathepsin B = cathepsin B (Homo sapiens, UniProt P07858); conditions: Rock, et al., 1994; cited from earlier work
Hsp104 = test: Immunoprecipitation of Hsp104 from radiolabeled HepG2 cells; type: cell-based, human; conditions: HepG2, ALLN 4 hours
Procedure: FIGS. 7A-7B: Effects of ALLN on the biosynthesis of other members of Hsp family and related proteins. HepG2 cells were pre-treated and radiolabeled with or without ALLN for 4 hours as described in FIG. 1. Cell lysates were used for SDS-PAGE (A), or for immunoprecipitation with anti-Hsp25, -Hsp27, -Hsp60, -Hsp70, -Hsp86, -Hsp90, -Hsp104, -Bip, or -albumin antibodies respectively (1 μg/ml) (B). Because the anti-Hsp25, -Hsp27, -Hsp60 and Hsp90 antibodies are from a rat source, rabbit anti-rat IgG antibody was added after the first incubation, and the incubation was extended for another 1 hour at 4° C. before collection with protein A-Sepharose.Immunoprecipitates were loaded for SDS-PAGE and aliquoted for scintillation counting and plotting. Each value was presented as mean ±S.D. from three individual culture dishes.
HepG2 cells were preincubated for 4 hours in serum-free MEM and then radiolabeled with ^3 H-Leucine (150 μCi/ml) in a serum-free, leucine-free medium. […] Cell lysates containing equal amounts of trichloroacetic acid (TCA)-insoluble radioactivity were used for immunoprecipitations by incubating with individual monoclonal antibody (1 μg/ml) for 2.5 hours at 4° C. […]

[3] = test system: protein of about 80-90 kDa; test: Whole-cell protein pattern of [3H]-leucine-labeled HepG2 lysates on SDS-PAGE; type: cell-based, human; conditions: ALLN-treated versus control HepG2 cells, FIG. 2A
Text: It was reported (Liu, et al., 1989) that in human diploid fibroblasts, heat shock treatment could induce the synthesis of several members of the Hsp family, including Hsp25, Hsp50, Hsp64, Hsp72, Hsp78, Hsp89 and Hsp98. Short, sublethal episodes of cardiac ischemia increase both Hsp70 and Hsp60 (Marber, et al., 1988). Such complex induction patterns may reflect an increased requirement for several of these Hsps, i.e., the need for several of these Hsps to increase, in order to prevent or protect pre-existing proteins from denaturation. […] It would be interesting to characterize this polypeptide and to identify its roles in the ALLN-induced cellular response.

CCCC[C@@H](C=O)NC(=O)[C@H](CC(C)C)NC(=O)[C@H](CC(C)C)NC(C)=O [ALLN, N-acetyl-leucyl-leucyl-norleucinal] (Ac-Leu-Leu-[Nle]-aldehyde)
Response of cellular Hsp70 levels (Hsp70 [1]): increasing cellular Hsp70 levels | Hsp70 levels after removal of ALLN (Hsp70 [2]; end of a 2-hour wash): 25 fold | Hsp70 levels after removal of ALLN (Hsp70 [2]; end of a 6-hour wash): 8 fold | Hsp70 levels after removal of ALLN (Hsp70 [2]; end of an 8-hour wash): 4 fold | Increment of newly synthesized Hsp70 levels compared with untreated cells (Hsp70 [2]; 30 min. labeling, data from several experiments): ~30 fold | Hsp70 levels induced (Hsp70 [2]; ALLN 10 μg/ml, 4 hours pre-treatment, HepG2): more than 9 fold | Increase of rate of incorporation of [3H]-leucine into Hsp70 (Hsp70 [2]; ALLN 40 μg/ml 4 hours preincubation, labeling 10-60 min, every time point): about 25 fold | Induction of Hsp70 by protease inhibitors (Hsp70 [2]; HepG2, 4 hours pre-treatment, ALLN, ALLM 40 μg/ml, leupeptin, pepstatin A 50 μg/ml, E-64d 25 μg/ml, PMSF 1 mM, aprotinin 100 KIU/ml, Benz 1 mM, CIP 200 μM): significantly induce | Induction of Hsp70 levels above baseline (Hsp70 [2]; HepG2 cells and human endothelial cells, maximal induction): up to 30 fold | Activity against cathepsin B (cathepsin B): significant activities | Effect on Hsp104 (Hsp104): no effects | Synthesis of a protein of about 80-90 kDa [3]: also increased

Reference: patent publication US5942494A, “Stimulation of gene expression and synthesis of heat shock protein 72/73 (HSP 70)” (The Trustees of Columbia University in the City of New York, priority 1996, dated 1999)
